# Values quoted from earlier work in PMC5040077 (The Korean Journal of Parasitology, 2016).
# How the values were obtained:
# [1] = system: Leishmania chagasi promastigotes
# [2] = system: Trypanosoma cruzi trypomastigotes
# HL-60 = settings: cancer cell line HL-60
# SF-295 = settings: cancer cell line SF-295
# MDA-MB-435 = settings: cancer cell line MDA-MB-435
# HCT-8 = settings: cancer cell line HCT-8
Compound,biological activity against Leishmania chagasi promastigotes [1],activity against Trypanosoma cruzi trypomastigotes [2],cytotoxicity against HL-60 (HL-60),cytotoxicity against SF-295 (SF-295),cytotoxicity against MDA-MB-435 (MDA-MB-435),cytotoxicity against HCT-8 (HCT-8)
"C[C@]12CC[C@H](O)C[C@@]1(O)CC[C@@H]1[C@@H]2CC[C@]2(C)[C@@H](c3ccc(=O)oc3)CC[C@]12O [compound 1, telocinobufagin]",biological activity,only hellebrigenin was active,low cytotoxicity,low cytotoxicity,low cytotoxicity,low cytotoxicity
"C[C@]12CC[C@H]3[C@@H](CC[C@]4(O)C[C@@H](O)CC[C@]34C=O)[C@@]1(O)CC[C@@H]2c1ccc(=O)oc1 [hellebrigenin, reference compound]",biological activity,active,–,–,–,–
